One assay concerns Influenza A virus H1N1. The assay is classed as cell-based. The following applies: MDCK cells 10^4 cells/100 μL/well.
The subject of a further assay is Influenza A virus H3N2. The format is cell-based. The following applies: MDCK cells 10^4 cells/100 μL/well.
For assay [1], the system named is MCa mammary carcinoma. The assay can be described thus: Intramuscular tumor growth in mice bearing MCa mammary carcinoma. The format is in vivo, CBA mice. To be noted: for Primary tumor weight % Inhibition / Primary tumor weight mg ± S.E.: 24 hrs after last treatment, hydrochloride. The protocol: The antitumor activity was examined in CBA mice bearing the MCa mammary carcinoma tumor or in C57BL mice inoculated with B-16 melanoma. The doses tested, 5 and 25 mg/kg bodyweight/day, given i.v. on days 1, 5, 9, 13 after tumor implantation were devoid of severe toxicity.
(§1) ^a Groups of 7 CBA mice, inoculated i.m. into the calf of the left
(§2) hind leg with 10^6 viable MCa mammary carcinoma cells on day 0, were
(§3) given i.v. the test compounds (saline for controls) on days 1, 5, 9, 13.
^b Evaluated 24 hrs after the last treatment. The tumor growth was
estimated by calliper measurements taking tumor density equal to 1 and
using the formula: tumor weight = (π/6)xA^2 xB, with A and B as tw
perpendicular axes (A<B).

Assay [2] deals with MCa mammary carcinoma. The assay can be described thus: Lung metastases development in mice bearing MCa mammary carcinoma. The following applies: for Animals without macroscopically detectable lung metastases % / lung metastases % Inhibition / lung metastases, mean: 25 mg/kg i.v. days 1, 5, 9, 13, evaluated day 23, hydrochloride. The assay is classed as in vivo, CBA mice. As for the experimental part:
| ^a Groups of 7 CBA mice, inoculated i.m. into the calf of the left | hind leg with 10^6 viable MCa mammary carcinoma cells on day 0, were | given i.v. 25 mg/kg of each test compound (saline for controls) on days 1 | 5, 9, 13. Lung metastases evaluation was performed on the freshly removed | lung tissue immediately after killing on day 23 by using a low power | stereo microscope. | ^b Animals without macroscopically detectable lung metastatic nodules

In assay [3] the test system is MCa mammary carcinoma. The assay can be described thus: Survival time of mice bearing MCa mammary carcinoma. The format is in vivo, CBA mice. To be noted: hydrochloride. The protocol: as §1, §2, §3
^b Survival time was recorded as the number of days of survival of
each mouse from the tumor implantation.

For another assay, the system named is melanoma B-16. In words: Lung metastases development in mice bearing melanoma B-16. The format is in vivo, C57BL/6 mice. To be noted: for Animals without metastases % / Number of metastatic nodules/mouse % inhibition / Number of metastatic nodules/mouse mean (min-max): counted day 30; for reduction of lung metastases to a fraction of the number in untreated control groups: i.v. administration on day 4. As for the experimental part: ^a Groups of 8 C57BL/6 mice (5-6 months old), inoculated i.v. with
10^5 melanoma B16 cells on day 0, were given i.v. 25 mg/kg of each
test compound (saline for controls) on days 4 or 7.
Macroscopically detectable lung metastases were counted on day 30.

The test system of a further assay is anti-HgG antibodies. The assay can be described thus: Immunoadjuvant activity in rabbits immunized with human gamma globulin (HgG). The assay is classed as in vivo, New Zealand rabbits. To be noted: 0.3 mg i.v. in PBS three days after immunogen; versus controls immunized with HgG in incomplete Freund's adjuvant. As for the experimental part:
The immunostimulating property of Isomer 1 and Isomer 2 of D,L(2-adamantyl-)-glycyl-L-alanyl-D-isoglutamine was tested in rabbits immunized with human gamma globulin (HgG).
New Zealand rabbits (five per group) were immunized s.c. with 0.5 mg of HgG in incomplete Freund's adjuvant. Isomer 1/Isomer 2 (0.3 mg) was administered i.v. in phosphate buffered saline (PBS) three days after immunogen. The formation of anti-HgG antibodies was followed by a solid phase radioimmunoassay method to provide a quantitative measure of anti-HgG antibodies in rabbit sera. Serum antibody content (mg/mL) was determined by parallel line bioassay method, using >>SIGMA<< antihuman IgG (whole molecule) as a standard.

[4] abbreviates: 25 mg/kg i.v. on day +4, hydrochloride.
[5] abbreviates: 25 mg/kg i.v. on day +7, hydrochloride.

Several values for one entry are separate records, joined by “and”; a condition that tells them apart may be missing. Equal entries are not always repeated. Where two headings read alike, the source gives them in different places.

Consider three molecules from patent US5286715A, “New adamantyl comprising tripeptides, derivatives and hydrochlorides thereof, their preparation and use” (priority 1989, dated 1994).

`C[C@H](NC(=O)C(N)C1C2CC3CC(C2)CC1C3)C(=O)N[C@H](CCC(=O)O)C(N)=O.Cl` (single isomer, unassigned; isomer 2) [Isomer 2, D,L-(2-Adamantyl-)-glycyl-L-alanyl-D-isoglutamine hydrochloride]: in the assay with Influenza A virus H1N1 (hydrochloride), the “MIC (minimum inhibitory concentration)” value worked out at 100 µg. Moreover, in the assay with Influenza A virus H3N2 (hydrochloride), the “MIC (minimum inhibitory concentration)” value turned out to be 50 µg. The “reduction of the volume of the intramuscular tumor” value in the assay on MCa mammary carcinoma [1] (5 mg/kg bodyweight/day i.v., 24 hours after the last day of treatment) amounted to 44%. Further, in the assay on MCa mammary carcinoma [1] (5 mg/kg i.v. days 1, 5, 9, 13), the “Primary tumor weight % Inhibition” value is on record as -44% and the “Primary tumor weight mg ± S.E.” value turned out to be 1076 ± 132 mg. For the same molecule, in the assay on MCa mammary carcinoma [1] (25 mg/kg i.v. days 1, 5, 9, 13), the “Primary tumor weight % Inhibition” value is -19% and the “Primary tumor weight mg ± S.E.” value amounted to 1559 ± 177 mg. Moreover, the “spontaneous dissemination of tumor to the lungs, % of controls” value in the assay with MCa mammary carcinoma [2] (25 mg/kg bodyweight/day i.v.) is given as 24 % of controls. Moreover, in the assay on MCa mammary carcinoma [2], the “Animals without macroscopically detectable lung metastases %” value is 57.1% and 57%; the “lung metastases % Inhibition” value is -76%; the “lung metastases, mean” value is given as 1.14. Besides, in the assay with MCa mammary carcinoma [3] (5 mg/kg i.v. days 1, 5, 9, 13), the “Survival time % Increase” value is on record as “+22%” and the “Survival time (days) mean (min-max)” value is on record as 27.4 (18-40) days. Moreover, in the assay with MCa mammary carcinoma [3] (25 mg/kg i.v. days 1, 5, 9, 13), the “Survival time % Increase” value was “+32%” and the “Survival time (days) mean (min-max)” value is reported as 29.7 (18-40) days. Also, the “Animals without metastases %” value in the assay on melanoma B-16 (25 mg/kg i.v. on day +4) was 37%. Also, in the assay on melanoma B-16 (setting [4]), the “Number of metastatic nodules/mouse % inhibition” value is reported as -69% and the “Number of metastatic nodules/mouse mean (min-max)” value was 0.97 (0-2). Further, in the assay on melanoma B-16 (setting [5]), the “Animals without metastases %” value was determined as 28%, the “Number of metastatic nodules/mouse % inhibition” value is recorded as -48% and the “Number of metastatic nodules/mouse mean (min-max)” value was 1.38 (0-4). For the same molecule, the “reduction of lung metastases to a fraction of the number in untreated control groups” value in the assay with melanoma B-16 is 1/3. The “Antibody formation against HgG” value in the assay with anti-HgG antibodies is on record as “significantly enhanced”.

Regarding `NC12CC3CC(CC(C3)C1)C2` [Symmetrel, amantadine, reference compound], the “MIC (minimum inhibitory concentration)” value against Influenza A virus H1N1 and with Influenza A virus H3N2 was below 12.5 µg each time.

Consider `C[C@H](NC(=O)C(N)C1C2CC3CC(C2)CC1C3)C(=O)N[C@H](CCC(=O)O)C(N)=O.Cl` (single isomer, unassigned; isomer 1) [Isomer 1, D,L-(2-Adamantyl-)-glycyl-L-alanyl-D-isoglutamine hydrochloride], for which the “MIC (minimum inhibitory concentration)” value against Influenza A virus H1N1 (hydrochloride) worked out at 12.5 µg. Also, the “MIC (minimum inhibitory concentration)” value in the assay with Influenza A virus H3N2 (hydrochloride) was above 200 µg. Moreover, in the assay with MCa mammary carcinoma [1] (5 mg/kg i.v. days 1, 5, 9, 13), the “Primary tumor weight % Inhibition” value is given as -28% and the “Primary tumor weight mg ± S.E.” value is given as 1387 ± 224 mg. In the assay on MCa mammary carcinoma [1] (25 mg/kg i.v. days 1, 5, 9, 13), the “Primary tumor weight % Inhibition” value is -21% and the “Primary tumor weight mg ± S.E.” value is reported as 1522 ± 182 mg. Further, in the assay on MCa mammary carcinoma [2], the “Animals without macroscopically detectable lung metastases %” value is 14.3%; the “lung metastases % Inhibition” value is on record as -43%; the “lung metastases, mean” value was found to be 2.71. In the assay with MCa mammary carcinoma [3] (5 mg/kg i.v. days 1, 5, 9, 13), the “Survival time % Increase” value is “+10%” and the “Survival time (days) mean (min-max)” value is 24.6 (18-31) days. Also, in the assay with MCa mammary carcinoma [3] (25 mg/kg i.v. days 1, 5, 9, 13), the “Survival time % Increase” value is on record as “+13%” and the “Survival time (days) mean (min-max)” value is recorded as 25.4 (15-40) days. Also, the “Animals without metastases %” value in the assay with melanoma B-16 (25 mg/kg i.v. on day +4) is 37%. Moreover, in the assay on melanoma B-16 (setting [4]), the “Number of metastatic nodules/mouse % inhibition” value is listed as -68% and the “Number of metastatic nodules/mouse mean (min-max)” value is on record as 1.0 (0-2). Besides, in the assay on melanoma B-16 (setting [5]), the “Animals without metastases %” value came to 37%, the “Number of metastatic nodules/mouse % inhibition” value is on record as -76% and the “Number of metastatic nodules/mouse mean (min-max)” value is recorded as 0.64 (0-1). In addition, the “reduction of lung metastases to a fraction of the number in untreated control groups” value with melanoma B-16 was 1/3.
